Data on 10 compounds can be found in ChEMBL document CHEMBL1201862, “PubChem BioAssay data set” (2004).

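Values below derive from 48-hour exposures of cells grown in 96-well plates, with endpoints linearly interpolated between the two concentrations bracketing the appropriate inhibition level. Abbreviation: GI50, concentration required for 50% inhibition of growth.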 Calls of active or inactive are those of the source. Rule as the data show it: active = GI50 up to about 1.1 µM and inactive = higher.

Some test systems named below: UACC-257; SR; CAKI-1; HCT-15; SF-539; MDA-MB-231; SK-MEL-2; SN12C; M14; MOLT-4; OVCAR-4; DU-145; 786-0; HCC 2998; RXF 393; UO-31; A498; HL-60; NCI-H226; NCI-H460.
Common to all, as to test: inhibition of tumour cell growth, NCI panel, 48 h

Turning to `CCCCCC1=C/C(=C\c2[nH]c(-c3ccc[nH]3)cc2OC)N=C1C`, the GI50 was 0.0684 µM (active) with UACC-257; < 0.01 µM (active) in the experiment on SR; < 0.01 µM (active) in the experiment with CAKI-1; below 0.01 µM in the experiment on HCT-15; 0.0127 µM (active) with SF-539; < 0.01 µM (active) in the experiment on MDA-MB-231. The GI50 in the experiment on SK-MEL-2, in the experiment on SN12C, in the experiment on M14, in the experiment with MOLT-4, in the experiment on OVCAR-4 and in the experiment with DU-145 was < 0.01 µM (active) in each case. The GI50 in the experiment on 786-0 is < 0.01 µM (active); in the experiment on HCC 2998 it was 0.0113 µM (active); in the experiment on RXF 393, 0.0115 µM (active); with UO-31 it was 0.011 µM (active); in the experiment with A498, 0.0989 µM (active); in the experiment on HL-60, < 0.01 µM (active). The GI50 was 0.012 µM (active) in the experiment on NCI-H226 and 0.0124 µM (active) in the experiment on NCI-H460.

Regarding `N[C@H]1CCCC[C@@H]1N1C(=O)c2ccccc2C1(O)c1ccc(Cl)cc1` (stereo partly specified), the GI50 was 4.15 µM (inactive) with UACC-257; 13.9 µM (inactive) in the experiment on SR; 4.4 µM (inactive) with CAKI-1; 13.4 µM with HCT-15; 10.4 µM (inactive) in the experiment with SF-539; 12.9 µM (inactive) in the experiment on MDA-MB-231. In addition, the GI50 in the experiment on SK-MEL-2 is 15 µM (inactive); in the experiment on SN12C it was 13.7 µM (inactive); in the experiment with M14 it was 9.44 µM (inactive); with MOLT-4, 5.79 µM (inactive); in the experiment with OVCAR-4, 11.2 µM (inactive); with DU-145, 13.2 µM (inactive). The GI50 in the experiment with 786-0 is 12.6 µM (inactive); in the experiment on HCC 2998, 1.86 µM (inactive); with RXF 393, 6.07 µM (inactive); in the experiment with UO-31 it was 11.6 µM (inactive); in the experiment on A498, 13.7 µM (inactive); with HL-60 it was 2.41 µM (inactive). The GI50 in the experiment on NCI-H226 was 15.9 µM (inactive); in the experiment on NCI-H460, 11.2 µM (inactive).

As to `O/N=N/c1ccc([SH2]c2ccc3ccccc3c2)cn1`, the GI50 in the experiment with UACC-257 was 36.1 µM (inactive); in the experiment on SR, 21.8 µM (inactive); with CAKI-1, 17.7 µM (inactive); in the experiment on HCT-15, 17.1 µM; in the experiment with SF-539, 41.9 µM (inactive); with MDA-MB-231, 30.1 µM (inactive). Moreover, the GI50 in the experiment with SK-MEL-2 is 15.4 µM (inactive); with SN12C, 20.5 µM (inactive); in the experiment with M14, 19.3 µM (inactive); in the experiment on MOLT-4 it was 1.62 µM (inactive); with OVCAR-4, > 100 µM (inactive); with DU-145, 17.1 µM (inactive). Besides, the GI50 is 31.3 µM (inactive) with 786-0; 13.4 µM (inactive) in the experiment on HCC 2998; < 0.01 µM (active) in the experiment with RXF 393; 24.6 µM (inactive) in the experiment on UO-31; 57.9 µM (inactive) in the experiment with A498; 3.97 µM (inactive) in the experiment on HL-60. For the same compound, the GI50 in the experiment with NCI-H226 is 31.6 µM (inactive); in the experiment with NCI-H460, 15.4 µM (inactive).

For `COc1ccc(-c2cc(-c3ccc(Nc4ccnc5cc(C(F)(F)F)ccc45)cc3)[nH]c(=O)c2C#N)cc1`, the GI50 with UACC-257 is > 100 µM (inactive); with SR, 9.51 µM (inactive); in the experiment with CAKI-1, > 100 µM (inactive); in the experiment on HCT-15, above 100 µM; in the experiment with SF-539, 21 µM (inactive); in the experiment with MDA-MB-231, 24.9 µM (inactive). Moreover, the GI50 in the experiment on SK-MEL-2 was > 50.6 µM (inactive); in the experiment on SN12C, > 100 µM (inactive); with M14, 27.2 µM (inactive); in the experiment with MOLT-4, > 100 µM (inactive); in the experiment on OVCAR-4 it was > 100 µM (inactive); in the experiment with DU-145 it was > 84.7 µM (inactive). For the same compound, the GI50 with 786-0 was 14.1 µM (inactive); in the experiment on HCC 2998, > 100 µM (inactive); in the experiment with RXF 393 it was > 32.7 µM (inactive); in the experiment on A498, > 40 µM (inactive); in the experiment on HL-60, > 100 µM (inactive); in the experiment on NCI-H226, > 29.3 µM (inactive). Besides, the GI50 with NCI-H460 is > 100 µM (inactive).

As to `O=C(Cn1ccnc1[N+](=O)[O-])NCCO` [ETANIDAZOLE], the GI50 in the experiment with UACC-257 was 56.5 µM (inactive); with SR it was > 100 µM (inactive); in the experiment on CAKI-1, > 100 µM (inactive); in the experiment on HCT-15, above 100 µM; in the experiment on SF-539, > 100 µM (inactive); in the experiment with MDA-MB-231 it was > 100 µM (inactive). Further, the GI50 with SK-MEL-2, with SN12C, with M14, in the experiment on OVCAR-4, in the experiment on DU-145 and with 786-0 was > 100 µM (inactive) in each case. The GI50 with HCC 2998 is 41.8 µM (inactive); in the experiment on RXF 393 it was > 100 µM (inactive); in the experiment with UO-31, > 100 µM (inactive); in the experiment on A498, > 100 µM (inactive); in the experiment on HL-60, > 100 µM (inactive); with NCI-H226 it was > 100 µM (inactive). Besides, the GI50 with NCI-H460 was 27.5 µM (inactive).

Consider `O=C(NCc1cccnc1)NCc1cccnc1`, for which the GI50 in the experiment with UACC-257 was > 100 µM (inactive); in the experiment on SR, > 100 µM (inactive); in the experiment on CAKI-1, > 100 µM (inactive); with HCT-15, above 100 µM; in the experiment on SF-539, > 100 µM (inactive); in the experiment with MDA-MB-231 it was > 100 µM (inactive). In addition, the GI50 in the experiment with SK-MEL-2, in the experiment with SN12C, in the experiment with M14, in the experiment on OVCAR-4, in the experiment with DU-145 and with 786-0 was > 100 µM (inactive) in each case. Further, the GI50 was > 100 µM (inactive) in the experiment on HCC 2998; > 100 µM (inactive) in the experiment with RXF 393; > 100 µM (inactive) in the experiment on UO-31; > 100 µM (inactive) with A498; > 100 µM (inactive) in the experiment with HL-60; 58.9 µM (inactive) with NCI-H226. For the same compound, the GI50 with NCI-H460 was > 100 µM (inactive).

With `CNc1ncc(-c2nnnn2-c2ccccc2)c(CN(C)C)n1`, the GI50 in the experiment on UACC-257 is > 100 µM (inactive); in the experiment on SR it was > 100 µM (inactive); in the experiment with CAKI-1, > 100 µM (inactive); with HCT-15 it was above 100 µM; in the experiment with SF-539, > 100 µM (inactive); in the experiment on MDA-MB-231, > 100 µM (inactive). In addition, the GI50 with SK-MEL-2, with SN12C, in the experiment on M14, in the experiment with MOLT-4, in the experiment on DU-145 and in the experiment on 786-0 was > 100 µM (inactive) throughout. The GI50 with HCC 2998, with RXF 393, in the experiment on UO-31, in the experiment on A498, with HL-60 and in the experiment with NCI-H226 was > 100 µM (inactive) throughout. Also, the GI50 with NCI-H460 is > 100 µM (inactive).

Consider `Cc1nnc2c3c(-c4ccccc4)c(-c4ccccc4)oc3nc(N(C)C)n12`, for which the GI50 with UACC-257 was 36.1 µM (inactive); in the experiment with SR, 16.7 µM (inactive); with CAKI-1, > 100 µM (inactive); with HCT-15 it was 23.7 µM; with SF-539 it was 86.5 µM (inactive); with MDA-MB-231, > 100 µM (inactive). The GI50 with M14 was 61.2 µM (inactive); with MOLT-4, 22.9 µM (inactive); in the experiment with OVCAR-4, > 100 µM (inactive); in the experiment on DU-145, > 100 µM (inactive); in the experiment on 786-0 it was 90.4 µM (inactive); with HCC 2998, 29.4 µM (inactive). In addition, the GI50 in the experiment with RXF 393 is 73.5 µM (inactive); with UO-31, 21.4 µM (inactive); in the experiment with A498, 65.2 µM (inactive); in the experiment with HL-60, 22.4 µM (inactive); with NCI-H226 it was 96.6 µM (inactive).

With `COC(=O)c1sc2c(=O)c(C(=O)OC)c(C(=O)OC)sc2c(=O)c1C(=O)OC`, the GI50 is > 100 µM (inactive) in the experiment on UACC-257; 37.8 µM (inactive) with SR; > 100 µM (inactive) in the experiment on CAKI-1; above 100 µM in the experiment with HCT-15; > 100 µM (inactive) in the experiment with SF-539; > 100 µM (inactive) with MDA-MB-231. Also, the GI50 in the experiment with SK-MEL-2 was > 85.9 µM (inactive); in the experiment with SN12C, > 100 µM (inactive); in the experiment with M14 it was > 100 µM (inactive); with MOLT-4, 5.85 µM (inactive); in the experiment on OVCAR-4, > 100 µM (inactive); with DU-145 it was > 100 µM (inactive). Moreover, the GI50 in the experiment with 786-0, in the experiment on HCC 2998, in the experiment on RXF 393, in the experiment on UO-31, in the experiment with A498 and with NCI-H226 was > 100 µM (inactive) in each case. Besides, the GI50 in the experiment on NCI-H460 was > 100 µM (inactive).

As for `CC1(C)C(O)c2ccccc2OC1N1CCN(C2Oc3ccccc3C(O)C2(C)C)CC1` (stereo unspecified), the GI50 with UACC-257 was > 100 µM (inactive); with SR, > 100 µM (inactive); with CAKI-1 it was > 100 µM (inactive); in the experiment with HCT-15, above 100 µM; with SF-539, > 100 µM (inactive); with MDA-MB-231, > 100 µM (inactive). Also, the GI50 in the experiment on SN12C, with M14, in the experiment with MOLT-4, in the experiment on OVCAR-4, in the experiment on DU-145 and in the experiment on 786-0 was > 100 µM (inactive) each time. For the same compound, the GI50 in the experiment on HCC 2998 was > 100 µM (inactive); in the experiment with RXF 393, > 100 µM (inactive); in the experiment with UO-31 it was > 100 µM (inactive); with A498 it was 30 µM (inactive); with HL-60 it was > 100 µM (inactive); with NCI-H226 it was > 100 µM (inactive). In addition, the GI50 in the experiment with NCI-H460 is > 100 µM (inactive).
